Results taken from paper PMC10786919, “Design-rules for stapled peptides with in vivo activity and their application to Mdm2/X antagonists” (Nature Communications, 2024).
In brackets after ≈: the same amount, converted by molar mass. Like-named read-outs stand apart in the source and are kept apart here. Positions of bridges follow the written chain, without caps; N, C: chain ends. Non-standard residues stand in square brackets, D forms with d. Residues, ends and D or L forms follow the SMILES beside them. Lys(N3) = [N-]=[N+]=NCCCC[C@H](N)C(=O)O; R8 = C=CCCCCCC[C@@](C)(N)C(=O)O; Cba = N[C@@H](CC1CCC1)C(=O)O; S5 = C=CCCC[C@](C)(N)C(=O)O; Ahx = NCCCCCC(=O)O; βAla = NCCC(=O)O

Tests used:
[1] = Experimental LogD (partition coefficient); conditions: for logD: not stated, Partition Coeff LogD
[2] = Solubility assay (kinetic solubility, PBS pH 7); format: physicochemical; conditions: for solubility kinetic: pH 7, aqueous buffer, kinetic from dmso stock, read-out: Solubility
Summary of the method: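 Next, measure peak areas of sample and standard. Finally, multiply their ratio by the standard concentration to obtain solubility (µM).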

[3] = Nanoclick permeability assay
Summary of the method: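 Azido-peptide permeability was read as loss of NanoBRET signal (donor 450 nm, acceptor 610 nm) after adding NanoBret618-azide at 10 μM final.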

[4] = Lactate dehydrogenase (LDH) release assay; format: cell-based
Summary of the method: (§1)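 HCT116 cells stably carrying a p53-responsive β-lactamase reporter were seeded at 8000 cells per well with a final DMSO level of 0.5%. Membrane integrity was assessed by lactate dehydrogenase release using a homogeneous fluorometric kit. Values are geometric means of at least three biological replicates.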

HCT116 cells = assay: Lactate dehydrogenase (LDH) release assay; format: cell-based
Summary of the method: as §1

[5] = 0% FBS 4Hr, read-out: LDH: Cytotoxicity assay EC50
[6] = 10% FBS 4Hr, read-out: LDH: Cytotoxicity assay EC50

SMILES | logD [1] | solubility kinetic ([2]; pH 7, PBS) [µM] | EPSA (physchem) [A^2] | cell entry EC50 [3] [nM] | EC50 [4, 5] [µM] | LDH: Cytotoxicity assay % Effect (HCT116 cells; 0% FBS 4Hr) [%] | LDH: Cytotoxicity assay % Effect (HCT116 cells; 0% FBS 16Hr) [%] | EC50 [4, 6] [µM] | LDH: Cytotoxicity assay % Effect (HCT116 cells; 10% FBS 4Hr) [%] | cell entry EC50 ([3]; Nanoclick permeability assay EC50) [nM] | EC50 ([4]; LDH: Cytotoxicity assay EC50) [µM] | LDH: Cytotoxicity assay % Effect (HCT116 cells) [%] | Partition Coeff LogD [1] | Partition Coeff LogD ([1]; experimental) | Solubility [2] | Solubility ([2]; pH 7, PBS) | EC50 ([4]; 4 hours, 0% serum, read-out: LDH Cytotoxicity assay EC50) [µM]
CC(=O)N[C@@H](CCCCN=[N+]=[N-])C(=O)NCCC(=O)N[C@@H](CC(C)C)C(=O)N[C@H](C(=O)N[C@@H](Cc1ccccc1)C(=O)N[C@]1(C)CCCCCCC=CCCC[C@@](C)(C(=O)N[C@@H](CO)C(=O)N[C@@H](C)C(=O)N[C@@H](C)C(N)=O)NC(=O)[C@H](CC2CCC2)NC(=O)[C@H](CCCCN)NC(=O)[C@H](C)NC(=O)[C@H](Cc2c[nH]c3ccccc23)NC(=O)[C@H](Cc2ccc(O)cc2)NC(=O)[C@H](CCC(=O)O)NC1=O)[C@@H](C)O [MP-550, AZIDE-ATSP-7041 (Q9K)] | 3.08 | 4 (≈ 7.88 µg/mL) | 217 | 437 | > 50 | 7.145 | 4.1 |  |  |  |  |  |  |  |  |  | 
CC(=O)N[C@@H](CCCCN=[N+]=[N-])C(=O)NCCC(=O)N[C@@H](C)C(=O)N[C@H](C(=O)N[C@@H](Cc1ccccc1)C(=O)N[C@]1(C)CCCCCCC=CCCC[C@@](C)(C(=O)N[C@@H](C)C(=O)N[C@@H](C)C(=O)N[C@@H](C)C(N)=O)NC(=O)[C@H](CC2CCC2)NC(=O)[C@H](CCC(N)=O)NC(=O)[C@H](C)NC(=O)[C@H](Cc2c[nH]c3ccccc23)NC(=O)[C@H](Cc2ccc(O)cc2)NC(=O)[C@H](CCC(=O)O)NC1=O)[C@@H](C)O [MP-960, AZIDE-ATSP-7041 (L1A,S12A)] (Ac-[Lys(N3)][βAla]ATF[R8]EYWAQ[Cba][S5]AAA-NH2; staple 6-13) | 2.76 | 102 (≈ 194 µg/mL) | 221 | 286 | > 50 | 17.36 |  |  |  |  |  |  |  |  |  |  | 
CC(=O)N[C@@H](CCCCN=[N+]=[N-])C(=O)NCCC(=O)N[C@@H](C)C(=O)N[C@H](C(=O)N[C@@H](Cc1ccccc1)C(=O)N[C@]1(C)CCCCCCC=CCCC[C@@](C)(C(=O)N[C@@H](CO)C(=O)N[C@@H](C)C(=O)N[C@@H](C)C(N)=O)NC(=O)[C@H](CC2CCC2)NC(=O)[C@H](CCC(N)=O)NC(=O)[C@H](C)NC(=O)[C@H](Cc2c[nH]c3ccccc23)NC(=O)[C@H](Cc2ccc(O)cc2)NC(=O)[C@H](C)NC1=O)[C@@H](C)O [MP-958, AZIDE-ATSP-7041 (L1A,E5A)] (Ac-[Lys(N3)][βAla]ATF[R8]AYWAQ[Cba][S5]SAA-NH2; staple 6-13) | 3.13 | 5 (≈ 9.35 µg/mL) | 207 | 333 | > 50 | 13.33 | 4.88 |  |  |  |  |  |  |  |  |  | 
CC(=O)N[C@@H](CCCCN=[N+]=[N-])C(=O)NCCC(=O)N[C@@H](CC(C)C)C(=O)N[C@H](C(=O)N[C@@H](Cc1ccccc1)C(=O)N[C@]1(C)CCCCCCC=CCCC[C@@](C)(C(=O)N[C@@H](C)C(=O)N[C@@H](C)C(=O)N[C@@H](C)C(N)=O)NC(=O)[C@H](CC2CCC2)NC(=O)[C@H](C)NC(=O)[C@H](C)NC(=O)[C@H](Cc2c[nH]c3ccccc23)NC(=O)[C@H](Cc2ccc(O)cc2)NC(=O)[C@H](CCC(=O)O)NC1=O)[C@@H](C)O [MP-8966, AZIDE-ATSP-7041 (Q9A,S12A)] (Ac-[Lys(N3)][βAla]LTF[R8]EYWAA[Cba][S5]AAA-NH2; staple 6-13) | 2.92 | 111 (≈ 211 µg/mL) | 215 | 202 | > 50 | 5.4 |  | > 50 | 4.079 |  |  |  |  |  |  |  | 
CC(=O)N[C@@H](CCCCN=[N+]=[N-])C(=O)NCCC(=O)N[C@@H](CC(C)C)C(=O)N[C@@H](C)C(=O)N[C@@H](Cc1ccccc1)C(=O)N[C@]1(C)CCCCCCC=CCCC[C@@](C)(C(=O)N[C@@H](CO)C(=O)N[C@@H](C)C(=O)N[C@@H](C)C(N)=O)NC(=O)[C@H](CC2CCC2)NC(=O)[C@H](CCC(N)=O)NC(=O)[C@H](C)NC(=O)[C@H](Cc2c[nH]c3ccccc23)NC(=O)[C@H](Cc2ccc(O)cc2)NC(=O)[C@H](CCC(=O)O)NC1=O [MP-953, AZIDE-ATSP-7041 (T2A)] (Ac-[Lys(N3)][βAla]LAF[R8]EYWAQ[Cba][S5]SAA-NH2; staple 6-13) | 2.93 | 186 (≈ 361 µg/mL) | 221 | 494 | > 50 | 11.05 | -0.16 |  |  |  |  |  |  |  |  |  | 
CC(=O)N[C@@H](CCCCN=[N+]=[N-])C(=O)N[C@@H](CCCCN)C(=O)NCCCCCC(=O)N[C@H](C(=O)N[C@@H](CO)C(=O)N[C@@H](Cc1ccccc1)C(=O)N[C@]1(C)CCCCCCC=CCCC[C@@](C)(C(=O)N[C@@H](CCC(=O)O)C(=O)N[C@@H](CC(N)=O)C(=O)N[C@@H](Cc2ccccc2)C(N)=O)NC(=O)[C@H](CC(C)C)NC(=O)[C@H](CC(C)C)NC(=O)[C@H](C)NC(=O)[C@H](Cc2c[nH]c3ccccc23)NC(=O)[C@H](Cc2ccc(O)cc2)NC(=O)[C@H](CCC(=O)O)NC1=O)[C@@H](C)O [MP-084] (Ac-[Lys(N3)]K[Ahx]TSF[R8]EYWALL[S5]ENF-NH2; staple 7-14) | 2.56 | 2 (≈ 4.5 µg/mL) | 187 |  |  |  |  |  |  | 74.5 | > 50.7 | 0.08783 |  |  |  |  | 
CC(=O)N[C@@H](CCCCN=[N+]=[N-])C(=O)NCCC(=O)N[C@@H](CC(C)C)C(=O)N[C@H](C(=O)N[C@@H](Cc1ccccc1)C(=O)N[C@]1(C)CCCCCCC=CCCC[C@@](C)(C(=O)N[C@@H](Cc2c[nH]cn2)C(=O)N[C@@H](C)C(=O)N[C@@H](C)C(N)=O)NC(=O)[C@H](CC2CCC2)NC(=O)[C@H](CCC(N)=O)NC(=O)[C@H](C)NC(=O)[C@H](Cc2c[nH]c3ccccc23)NC(=O)[C@H](Cc2ccc(O)cc2)NC(=O)[C@H](CCC(=O)O)NC1=O)[C@@H](C)O [MP-177, AZIDE-ATSP-7041 (S12H)] (Ac-[Lys(N3)][βAla]LTF[R8]EYWAQ[Cba][S5]HAA-NH2; staple 6-13) | 2.74 | 6.5 (≈ 13.1 µg/mL) | 227 | 149 | > 50 | 4.985 |  |  |  |  |  |  |  |  |  |  | 
CC(=O)N[C@@H](CCCCN=[N+]=[N-])C(=O)NCCC(=O)N[C@@H](CC(C)C)C(=O)N[C@@H](C)C(=O)N[C@@H](Cc1ccccc1)C(=O)N[C@]1(C)CCCCCCC=CCCC[C@@](C)(C(=O)N[C@@H](CO)C(=O)N[C@@H](C)C(=O)N[C@@H](C)C(N)=O)NC(=O)[C@H](CC2CCC2)NC(=O)[C@H](CCC(N)=O)NC(=O)[C@H](C)NC(=O)[C@H](Cc2c[nH]c3ccccc23)NC(=O)[C@H](Cc2ccc(O)cc2)NC(=O)[C@H](C)NC1=O [MP-961, AZIDE-ATSP-7041 (T2A,E5A)] (Ac-[Lys(N3)][βAla]LAF[R8]AYWAQ[Cba][S5]SAA-NH2; staple 6-13) |  |  | 206 | 272 | > 50 | 4.443 |  |  |  |  |  |  | Poorly Behaved | P.B. | P.B. | Poorly Behaved | 
CC(=O)N[C@@H](CCCCN=[N+]=[N-])C(=O)NCCC(=O)N[C@@H](C)C(=O)N[C@@H](C)C(=O)N[C@@H](Cc1ccccc1)C(=O)N[C@]1(C)CCCCCCC=CCCC[C@@](C)(C(=O)N[C@@H](CO)C(=O)N[C@@H](C)C(=O)N[C@@H](C)C(N)=O)NC(=O)[C@H](CC2CCC2)NC(=O)[C@H](CCC(N)=O)NC(=O)[C@H](C)NC(=O)[C@H](Cc2c[nH]c3ccccc23)NC(=O)[C@H](Cc2ccc(O)cc2)NC(=O)[C@H](CCC(=O)O)NC1=O [MP-957, AZIDE-ATSP-7041 (L1A,T2A)] (Ac-[Lys(N3)][βAla]AAF[R8]EYWAQ[Cba][S5]SAA-NH2; staple 6-13) | 2.69 | 101 (≈ 192 µg/mL) | 226 | 125 | 17.1 | 25.16 |  |  |  |  |  |  |  |  |  |  | 17.1
CC(=O)N[C@@H](CCCCN=[N+]=[N-])C(=O)NCCC(=O)N[C@@H](C)C(=O)N[C@H](C(=O)N[C@@H](Cc1ccccc1)C(=O)N[C@]1(C)CCCCCCC=CCCC[C@@](C)(C(=O)N[C@@H](CO)C(=O)N[C@@H](C)C(=O)N[C@@H](C)C(N)=O)NC(=O)[C@H](CC2CCC2)NC(=O)[C@H](CCC(N)=O)NC(=O)[C@H](C)NC(=O)[C@H](Cc2c[nH]c3ccccc23)NC(=O)[C@H](Cc2ccc(O)cc2)NC(=O)[C@H](CCC(=O)O)NC1=O)[C@@H](C)O [MP-952, AZIDE-ATSP-7041 (L1A)] | 2.73 | 109 (≈ 210 µg/mL) | 223 | 192 | > 50 | 11.9 | 8.95 |  |  |  |  |  |  |  |  |  | 
CC(=O)N[C@@H](CCCCN=[N+]=[N-])C(=O)NCCC(=O)N[C@@H](CC(C)C)C(=O)N[C@H](C(=O)N[C@@H](Cc1ccccc1)C(=O)N[C@]1(C)CCCCCCC=CCCC[C@@](C)(C(=O)N[C@@H](CO)C(=O)N[C@@H](C)C(=O)N[C@@H](C)C(N)=O)NC(=O)[C@H](CC2CCC2)NC(=O)[C@H](C)NC(=O)[C@H](C)NC(=O)[C@H](Cc2c[nH]c3ccccc23)NC(=O)[C@H](Cc2ccc(O)cc2)NC(=O)[C@H](CCC(=O)O)NC1=O)[C@@H](C)O [MP-955, AZIDE-ATSP-7041 (Q9A)] (Ac-[Lys(N3)][βAla]LTF[R8]EYWAA[Cba][S5]SAA-NH2; staple 6-13) | 2.94 | 86.5 (≈ 165 µg/mL) | 215 | 582 | > 50 | 21.34 |  | > 50 | -4.376 |  |  |  |  |  |  |  | 
